Assay results as given in patent US9198894B2, “Uses of 15-benzylidene-14-deoxy-11,12-didehydroandrographolide derivatives in the preparation of antineoplastic drugs” (Zhengzhou University, priority 2010, dated 2015).
Where two headings read alike, the source gives them in different places. Marks after values point to notes of the source that are not given here.

Columns and labels:
[1] = test system: Hela human cervical carcinoma; assay: Colony formation assay, Hela; format: cell-based; conditions: Hela
Method: (§1) 1) Cell lines: Cell lines of SGC-7901 human gastric cancer, A549 human lung adenocarcinoma and Hela human cervical carcinoma were purchased from the Type Culture Collection of the Chinese Academy of Sciences, Shanghai, China.
(§2) 3) Method: Colony formation assay was used. The cells were trypsinized to generate a single-cell suspension and seeded in a 6-well plate at a density of 100 cells/well, then drug-containing medium was added to the well to make the final concentration of compound to 0, 1.25, 2.50, 5.00, 7.50, 10.00 μmol/L, respectively. The experiments were performed in duplicate, and the cells were cultured at 37 in a humidified atmosphere with 5% CO2. Terminate cell culture when the clones can be seen in the culture plate, then remove the culture medium, and wash twice with PBS, fix the cells with methanol (5 ml/well) for 15 min and stain the cells with hematoxylin-eosin stain. The number of clones which comprised more than 50 cells was counted under a TS100-F-PH microscope (Nikon Company, Japan). Calculate relative colony formation ratio (%) and the IC50 values. Relative colony formation ratio (%)=(colony number of drug-administration well/colony number of control well)×100%.

[2] = test system: SGC-7901 human gastric adenocarcinoma cells; assay: Wound healing (two-dimensional migration) assay, SGC-7901; format: cell-based; conditions: SGC-7901, 10.00 μmol/l, 36 h (FIG. 1D)
Method: (§3) 1) Cell lines: Cell lines of 5637 human bladder carcinoma, Eca-109 human esophageal carcinoma, HT29 human colon cancer, SGC-7901 human gastric cancer, A549 human lung adenocarcinoma and PC-3 human prostate carcinoma were purchased from the Type Culture Collection of the Chinese Academy of Sciences, Shanghai, China.
3) Methods: The cells were trypsinized to generate a single-cell suspension and seeded in 96-well plates (200 μl/well), and incubated with medium containing 10% fetal bovine serum at 37 in a humidified atmosphere with 5% CO2. Following a 24 h incubation, the cells were starved for an additional 12 h in low-serum media (1% FBS). The cultures of Eca-109, HT29, 5637, SGC-7901, A549 and PC-3 were then scratched away with a 200-μl plastic pipette tip and rinsed twice with PBS to remove wound-derived loose and dislodged cells. […] The average scraped area in each well under each treatment condition was measured, and the percentage of inhibition against cell migration was calculated. % of inhibition=1−(A0−At)/(A′0−A′t)×100%, where, A0 and At are the areas of wound with compound treatment measured immediately and 24 or 36 h post-injury, respectively; A′0 and A′t are the areas of wound without compound treatment measured immediately and 24 or 36 h post-injury, respectively.

[3] = test system: A549 human lung adenocarcinoma; assay: Colony formation assay, A549; format: cell-based
Method: as §1, §2

[4] = test system: SGC-7901 human gastric cancer; assay: Colony formation assay, SGC-7901; format: cell-based
Method: as §1, §2

[5] = test system: 5637 human urinary bladder cancer cells; assay: Wound healing (two-dimensional migration) assay, 5637; format: cell-based; conditions: 5637, 10.00 μmol/l, 24 h (FIG. 1C)
Method: as §3
(§4) 3) Methods: The cells were trypsinized to generate a single-cell suspension and seeded in 96-well plates (200 μl/well), and incubated with medium containing 10% fetal bovine serum at 37 in a humidified atmosphere with 5% CO2. Following a 24 h incubation, the cells were starved for an additional 12 h in low-serum media (1% FBS). The cultures of Eca-109, HT29, 5637, SGC-7901, A549 and PC-3 were then scratched away with a 200-μl plastic pipette tip and rinsed twice with PBS to remove wound-derived loose and dislodged cells. The cells were cultured in replaced medium without or with compounds at final concentrations of 0, 2.50, 5.00 and 10.00 μmol/L, respectively. At least seven randomly selected views along the scraped line in each well were photographed immediately and 24 h and 36 h after incubation using a digital camera at 50× magnification. The average scraped area in each well under each treatment condition was measured, and the percentage of inhibition against cell migration was calculated. % of inhibition=1−(A0−At)/(A′0−A′t)×100%, where, A0 and At are the areas of wound with compound treatment measured immediately and 24 or 36 h post-injury, respectively; A′0 and A′t are the areas of wound without compound treatment measured immediately and 24 or 36 h post-injury, respectively.

[6] = test system: ECV304 human vascular endothelial cells; assay: Two-dimensional migration of ECV304 (wound healing); format: cell-based; conditions: 10.00 μmol/L (FIG. 2A)
[7] = test system: B16-F10 mouse melanoma cells; format: in vivo; conditions: B16-F10, C57BL/6 mice; for Lung index / Nodule number (melanoma nodules in lungs): mean ± s, n = 5
Method: 1) Animals: A total of 20 C57BL/6 male mice of clean grade [Number of Animal License: SCXK (Xiang) 2009-0004], weighing 18-22 g, were purchased from Hunan Slca Jingda Experimental Animal Center Company, Ltd., China.
2) Cells: B16-F10 mouse melanoma cells were purchased from Nanjing KeyGen Biotech. Co. Ltd., China.
(§5) 4) Method: B16-F10 cells in logarithmic growth phase were trypsinized, then resuspended in RPMI1640 medium containing 10% fetal bovine serum and centrifuged at 1000 rpm for 5 min. The supernatant was removed and sterile PBS was added to prepare single-cell suspension (10^7/mL). The murine melanoma lung metastasis model was established in mice via caudal vein injection of B16-F10 cells (0.2 ml/mouse). Mice were randomly divided into 4 groups (n=5) according to body weight, and 24 h later they were administrated intragastrically (ig; 0.2 ml/10 g) once a day continuously for 24 d with vehicle (tumor control group), Cyc (30 mg/kg), compound 3 at 0.85 mmol/kg and 1.10 mmol/kg. Mice were weighed and blood was collected by removing the eyeball at 24 h after the last administration. Sacrificed the mice, removed the lung and counted the number of melanoma nodules in lungs of mice under an anatomical lens. Serum obtained after centrifugation at 3000 rpm for 20 min (3K30 refrigerated centrifuge, Sigma, USA) was conserved at −20° C. Levels of TNF-α and IL-1β in serum were measured by ELISA method, which were performed in accordance with the instructions of the kits.
Data were expressed as mean±SD and statistical analysis was performed by SPSS Statistics 17.0 using a one-way analysis of variance (ANOVA) followed by unpaired t-test. A value of P<0.05 was considered statistically significant. The inhibition ratio (IR %) of lung metastasis was calculated as follows: IR %=(Nc−Nt)/Nc×100%, where Nc is the average number of nodules in lung tissues of vehicle, and Nt is that of mice treated with drugs.

IL-1β = format: in vivo, mouse; conditions: C57BL/6 mice, mean ± s, n = 5
[8] = test system: Eca-109 human esophageal carcinoma cells; assay: Wound healing (two-dimensional migration) assay, Eca-109; format: cell-based; conditions: Eca-109, 10.00 μmol/l, 24 h (FIG. 1A)
Method: as §3, §4

[9] = test system: A549 human lung carcinoma cells; assay: Wound healing (two-dimensional migration) assay, A549; format: cell-based; conditions: A549, 10.00 μmol/l, 36 h (FIG. 1E)
Method: as §3, §4

[10] = format: in vivo, mouse; conditions: C57BL/6 mice, before vs 24 d after administration
Method: as §5

TNF-α = format: in vivo, mouse; conditions: C57BL/6 mice, mean ± s, n = 5
[11] = read-out: Inhibition against tumor cell colony formation IC50

SMILES: C=C1CCC2C(C)(CO)C(O)CCC2(C)C1C=CC1=CC(=Cc2ccc(Cl)cc2)OC1=O (stereo not shown) [Compound 2, 15-p-chlorobenzylidene-14-deoxy-11,12-didehydro-andrographolide]
- Inhibition of colony formation compared with andrographolide [1]: remarkably stronger than that of andrographolide
- IC50 [1, 11]: 1380 nM
- Inhibitory effect on two-dimensional migration [2]: much stronger than that of other tumor cells
- Inhibition of colony formation compared with andrographolide [3]: remarkably stronger than that of andrographolide
- IC50 [3, 11]: 1420 nM
- Inhibition of colony formation compared with andrographolide [4]: remarkably stronger than that of andrographolide
- IC50 [4, 11]: 2100 nM
- Inhibitory effect on two-dimensional migration [5]: much stronger than that of other tumor cells
- Inhibition of two-dimensional migration of ECV304 [6]: the most significant one

SMILES: C=C1CCC2C(C)(COC(=O)c3cccnc3)C(OC(=O)c3cccnc3)CCC2(C)C1C=CC1=CC(=Cc2ccc(Cl)cc2)OC1=O (stereo not shown) [Compound 3, 15-p-chlorobenzylidene-14-deoxy-11,12-didehydro-3,19-dinicotinate andrographolide]
- IR (%) of lung metastasis ([7]; 0.85 mmol/kg ig 24 d): 58.04%
- IR (%) of lung metastasis ([7]; 0.85 mmol/kg ig 24 d, listed as compound 3): 58.04%
- Lung index ([7]; 0.85 mmol/kg ig 24 d): 6.19 ± 0.76 mg/g
- Nodule number (melanoma nodules in lungs) ([7]; 0.85 mmol/kg ig 24 d): 35.25 ± 14.45
- IR (%) of lung metastasis ([7]; 1.10 mmol/kg ig 24 d): 65.18%
- IR (%) of lung metastasis ([7]; 1.10 mmol/kg ig 24 d, listed as compound 3): 65.18%
- Lung index ([7]; 1.10 mmol/kg ig 24 d): 6.39 ± 0.57 mg/g
- Nodule number (melanoma nodules in lungs) ([7]; 1.10 mmol/kg ig 24 d): 29.25 ± 881**^∇
- IL-1β in serum (IL-1β; 0.85 mmol/kg ig 24 d): 30.76 ± 3.25 pg/mL
- IL-1β in serum (IL-1β; 1.10 mmol/kg ig 24 d): 17.86 ± 3.41 pg/mL
- Inhibitory effect on two-dimensional migration [8]: much stronger than that of other tumor cells
- Inhibitory effect on two-dimensional migration [9]: much stronger than that of other tumor cells
- Average net increase in body weight ([10]; 0.85 mmol/kg ig): 1.64 g
- Average net increase in body weight ([10]; 1.10 mmol/kg ig): 2.00 g
- TNF-α in serum (TNF-α; 0.85 mmol/kg ig 24 d): 0.52 ± 5.90
- TNF-α in serum (TNF-α; 1.10 mmol/kg ig 24 d): 11.11 ± 5.96
